From ChEMBL document CHEMBL1201862, “PubChem BioAssay data set” (2004)
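All cell lines were grown in 96-well plates and treated with compound for 48 hours. The concentration for 50% growth inhibition is given as GI50.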 The source made the active and inactive calls. Rule as the data show it: active = GI50 up to about 1.1 µM and inactive = higher.

How the values were obtained:
Assay in all cases: growth of human tumour cells (NCI), 48 h
ACHN = test system: ACHN
CCRF-CEM = test system: CCRF-CEM
COLO 205 = test system: COLO 205
EKVX = test system: EKVX
HL-60 = test system: HL-60
IGROV-1 = test system: IGROV-1
M14 = test system: M14
NCI-H226 = test system: NCI-H226
NCI-H522 = test system: NCI-H522
OVCAR-5 = test system: OVCAR-5
SF-268 = test system: SF-268
SK-MEL-28 = test system: SK-MEL-28
SN12C = test system: SN12C
SNB-75 = test system: SNB-75
SW-620 = test system: SW-620
TK-10 = test system: TK-10
UACC-257 = test system: UACC-257
SK-MEL-5 = test system: SK-MEL-5

| Compound | GI50 (ACHN) | GI50 (CCRF-CEM) | GI50 (COLO 205) | GI50 (EKVX) | GI50 (HL-60) | GI50 (IGROV-1) | GI50 (M14) | GI50 (NCI-H226) | GI50 (NCI-H522) | GI50 (OVCAR-5) | GI50 (SF-268) | GI50 (SK-MEL-28) | GI50 (SN12C) | GI50 (SNB-75) | GI50 (SW-620) | GI50 (TK-10) | GI50 (UACC-257) | GI50 (SK-MEL-5) |
| --- | --- | --- | --- | --- | --- | --- | --- | --- | --- | --- | --- | --- | --- | --- | --- | --- | --- | --- |
| Oc1nc(-c2ccccc2)cc(-c2ccccc2O)n1 | 67.6 µM (inactive) | > 100 µM (inactive) | > 100 µM (inactive) | 6.71 µM (inactive) | 79.1 µM (inactive) | > 100 µM (inactive) | > 100 µM (inactive) | > 100 µM (inactive) | 69.3 µM (inactive) | 62.5 µM (inactive) | > 100 µM (inactive) | > 100 µM (inactive) | 95.5 µM (inactive) | 43.9 µM (inactive) | > 100 µM (inactive) | > 100 µM (inactive) | > 100 µM (inactive) | – |
| O=c1[nH]c2ccccc2cc1C(Cl)=C(Cl)Cl | > 100 µM (inactive) | > 100 µM (inactive) | > 100 µM (inactive) | 35.7 µM (inactive) | 53.7 µM (inactive) | > 100 µM (inactive) | > 100 µM (inactive) | > 100 µM (inactive) | > 100 µM (inactive) | > 100 µM (inactive) | > 100 µM (inactive) | > 100 µM (inactive) | > 100 µM (inactive) | 35.2 µM (inactive) | > 100 µM (inactive) | > 100 µM (inactive) | > 100 µM (inactive) | – |
| Cc1nc2ccccc2c(=O)n1/N=C(\N=N\c1cc(Cl)ccc1Cl)c1ccc(N(C)C)cc1 | 71.8 µM (inactive) | 52.7 µM (inactive) | 78.3 µM (inactive) | 45.3 µM (inactive) | 22.9 µM (inactive) | 49.9 µM (inactive) | – | – | 25 µM (inactive) | – | 41.5 µM (inactive) | > 100 µM (inactive) | 58.6 µM (inactive) | – | > 100 µM (inactive) | 88.3 µM (inactive) | – | 27.2 µM (inactive) |
| CCOC(=O)C1=C(Nc2ccc(Cl)c(Cl)c2)OC/C1=N\NS(=O)(=O)c1ccc(C)cc1 | – | 27.5 µM (inactive) | > 100 µM (inactive) | 58.1 µM (inactive) | 27.9 µM (inactive) | 68.9 µM (inactive) | 73.3 µM (inactive) | 27.3 µM (inactive) | 29 µM (inactive) | > 100 µM (inactive) | 45.8 µM (inactive) | 64.7 µM (inactive) | 57.8 µM (inactive) | 35.8 µM (inactive) | > 100 µM (inactive) | 42.5 µM (inactive) | 18.2 µM (inactive) | 42.9 µM (inactive) |
| CCOC(=O)Cc1nc(/C(C#N)=C/c2ccco2)[nH]c(=O)c1C#N | > 100 µM (inactive) | > 100 µM (inactive) | 33.5 µM (inactive) | > 100 µM (inactive) | 95.3 µM (inactive) | > 100 µM (inactive) | > 100 µM (inactive) | > 100 µM (inactive) | 39.2 µM (inactive) | > 100 µM (inactive) | – | – | > 100 µM (inactive) | > 100 µM (inactive) | > 100 µM (inactive) | > 100 µM (inactive) | > 100 µM (inactive) | > 100 µM (inactive) |
| Clc1ccc2c(Cl)ncnc2c1I | > 10 µM (inactive) | > 10 µM (inactive) | > 100 µM (inactive) | 10.4 µM (inactive) | 20.1 µM (inactive) | 52.5 µM (inactive) | 49.8 µM (inactive) | 32.4 µM (inactive) | 20.6 µM (inactive) | > 100 µM (inactive) | > 100 µM (inactive) | > 100 µM (inactive) | > 100 µM (inactive) | 14.6 µM (inactive) | 80 µM (inactive) | > 100 µM (inactive) | > 100 µM (inactive) | > 100 µM (inactive) |
| O=C1c2cccc([N+](=O)[O-])c2C(=O)c2nccnc21 | 3.19 µM (inactive) | 2.54 µM (inactive) | – | 1.81 µM (inactive) | 2.15 µM (inactive) | – | 1.57 µM (inactive) | 1.94 µM (inactive) | 1.36 µM (inactive) | 3.81 µM (inactive) | – | 1.63 µM (inactive) | 1.66 µM (inactive) | 1.07 µM (active) | 1.73 µM (inactive) | 2.06 µM (inactive) | 0.502 µM (active) | 0.25 µM (active) |
| CCCCCCCCCCCCCCCC/C(C(=O)OC)=C(/O)C(=O)OCC | 70.5 µM (inactive) | > 100 µM (inactive) | > 100 µM (inactive) | – | > 100 µM (inactive) | > 100 µM (inactive) | > 100 µM (inactive) | > 100 µM (inactive) | > 100 µM (inactive) | > 100 µM (inactive) | > 100 µM (inactive) | > 100 µM (inactive) | > 100 µM (inactive) | 55 µM (inactive) | > 100 µM (inactive) | > 100 µM (inactive) | > 100 µM (inactive) | > 100 µM (inactive) |
| O=C(O)c1ccc(C2C(=O)N[C@@H]3CCC[C@H]23)cc1 (stereo partly specified) | – | > 100 µM (inactive) | > 100 µM (inactive) | > 100 µM (inactive) | > 100 µM (inactive) | > 100 µM (inactive) | > 100 µM (inactive) | > 100 µM (inactive) | > 100 µM (inactive) | > 100 µM (inactive) | > 100 µM (inactive) | > 100 µM (inactive) | – | > 100 µM (inactive) | > 100 µM (inactive) | > 100 µM (inactive) | > 100 µM (inactive) | > 100 µM (inactive) |
